In the experiment the target is RIPK1 (recombinant GST-RIPK1 kinase domain, residues 1-327) (Homo sapiens (Human), UniProt Q13546). Kind of experiment: RIPK1-ADP-Glo Enzymatic Assay. To be noted: ADP-Glo; 25 nM GST-RIPK1, 300 μM ATP; assay lower limit ~25 nM; read-out: RIPK1 V0 Ec50. It counts as biochemical. The procedure, abridged: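 Luminescent ADP-Glo readout of ATP-to-ADP conversion. Conditions: 25 nM enzyme, 300 μM ATP, 3 μM dephospho-MBP, pH 7.3 HEPES buffer with 20 mM MgCl2; 30 min compound pre-incubation, 150 min reaction. EC50 via four-parameter sigmoidal regression; assay floor ~25 nM.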
RIPK1 (recombinant GST-RIPK1 kinase domain, residues 1-327), sequence (Q13546 1-327): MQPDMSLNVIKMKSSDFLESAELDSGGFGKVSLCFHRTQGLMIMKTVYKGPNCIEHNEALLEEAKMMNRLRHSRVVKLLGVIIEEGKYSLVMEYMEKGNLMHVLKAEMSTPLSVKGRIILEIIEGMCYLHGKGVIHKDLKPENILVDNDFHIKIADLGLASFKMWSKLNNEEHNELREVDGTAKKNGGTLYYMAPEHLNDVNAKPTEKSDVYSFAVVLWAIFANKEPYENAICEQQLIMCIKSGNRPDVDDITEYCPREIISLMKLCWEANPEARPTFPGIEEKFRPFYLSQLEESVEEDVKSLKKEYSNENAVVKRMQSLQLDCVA
(In ADP-Glo the light output rises with the ADP produced.)

SMILES strings stand for the structures. Counter-ions that a name gives are not always drawn.

The values below come from patent US12180226B2, “Spirotricycle RIPK1 inhibitors and methods of uses thereof” (Merck Sharp & Dohme LLC, priority 2021, dated 2024).

Usually EC50 stands for the concentration giving half of the maximal effect.

For `CC(F)c1cc(N2CCC3(CC2)O[C@@H]2CC[C@@H](c4ccccc4)N2C3=O)ncn1` (stereo partly drawn) [Example 4.215, (5′S,7a′R)-1-[6-(1-fluoroethyl)pyrimidin-4-yl]-5′-phenyltetrahydro-3′H-spiro[piperidine-4,2′-pyrrolo[2,1-b] [1,3]oxazol]-3′-one], the EC50 was determined as 552 nM.
Regarding `O=C1N2[C@@H](CC[C@H]2c2ccccc2F)OC12CCN(c1ccnc(Cl)c1)CC2` [Example 4.268, (5′S,7a′R)-1-(2-chloropyridin-4-yl)-5′-(2-fluorophenyl)tetrahydro-3′H-spiro[piperidine-4,2′-pyrrolo[2,1-b] [1,3]oxazol]-3′-one], the EC50 was below 25 nM.
For `O=C1N2[C@@H](CC[C@H]2c2cc(F)cc(F)c2)OC12CCN(c1ncc(F)cn1)CC2` [Example 4.67, (5′S,7a′R)-5′-(3,5-difluorophenyl)-1-(5-fluoropyrimidin-2-yl)tetrahydro-3′H-spiro[piperidine-4,2′-pyrrolo[2,1-b] [1,3]oxazol]-3′-one] the value was 89.2 nM.
Under `CC(C)N1Cc2nc(N3CCC4(CC3)O[C@@H]3CC[C@@H](c5ccccc5)N3C4=O)ccc2C1=O` [Example 4.195, (5′S,7a′R)-1-[5-oxo-6-(propan-2-yl)-6,7-dihydro-5H-pyrrolo[3,4-b]pyridin-2-yl]-5′-phenyltetrahydro-3′H-spiro[piperidine-4,2′-pyrrolo[2,1-b] [1,3]oxazol]-3′-one] stands 48.4 nM; under `O=C1N2[C@@H](CC[C@H]2c2ccccc2)OC12CCN(c1ncc(-c3cnco3)cc1F)CC2` [Example 21.5, (5′S,7a′R)-1-[3-fluoro-5-(1,3-oxazol-5-yl)pyridin-2-yl]-5′-phenyltetrahydro-3′H-spiro[piperidine-4,2′-pyrrolo[2,1-b][1,3]oxazol]-3′-one], below 25 nM; under `COc1cnc(N2CCC3(CC2)O[C@@H]2CC[C@@H](c4ccccc4)N2C3=O)n2ncnc12` [Example 19.6, (5′S,7a′R)-1-(8-methoxy[1,2,4]triazolo [1,5-c]pyrimidin-5-yl)-5′-phenyltetrahydro-3′H-spiro[piperidine-4,2′-pyrrolo[2,1-b][1,3]oxazol]-3′-one], 45.4 nM.
`O=C(c1cnc2cnccn12)N1CCC2(CC1)O[C@@H]1CC[C@@H](c3cc(F)cc(F)c3)N1C2=O` [Example 5.67, (5′S,7a′R)-5′-(3,5-difluoro-phenyl)-1-(imidazo[1,2-a]pyrazine-3-carbonyl)-tetrahydro-3′H-spiro [piperidine-4,2′-pyrrolo-[2,1-b]oxazol]-3′-one]: the EC50 turned out to be 135 nM.
Under `Cc1cc(C)cc(C(=O)N2CCC3(CC2)O[C@@H]2CC[C@@H](c4cccc(F)c4)N2C3=O)c1` [Example 6.132, (5′S,7a′R)-1-(3,5-dimethylbenzene-1-carbonyl)-5′-(3-fluoro-phenyl)tetrahydro-3′H-spiro[piperidine-4,2′-pyrrolo[2,1-b][1,3]oxazol]-3′-one] stands 71.7 nM; under `N#Cc1ccc(N2CCC3(CC2)O[C@@H]2CC[C@@H](c4cc(F)cc(F)c4)N2C3=O)nn1` [Example 4.100, 6-((5′S,7a′R)-5′-(3,5-difluorophenyl)-3′-oxotetrahydro-3′H-spiro[piperidine-4,2′-pyrrolo[2,1-b]oxazol]-1-yl)pyridazine-3-carbonitrile], 240 nM; under `O=C(c1ccccc1F)N1CCC2(CC1)O[C@@H]1CC[C@@H](c3ccccc3)N1C2=O` [Example 1.10, (5′S,7a′R)-1-(2-fluorobenzene-1-carbonyl)-5′-phenyltetrahydro-3′H-spiro[piperidine-4,2′-pyrrolo[2,1-b] [1,3]oxazol]-3′-one], below 25 nM.
On to `O=C(c1cc(C(F)(F)F)cnn1)N1CCC2(CC1)O[C@@H]1CC[C@@H](c3cc(F)cc(F)c3)N1C2=O` [Example 6.34, (5′S,7a′R)-5′-(3,5-difluorophenyl)-1-[5-(trifluoromethyl)pyrid-azine-3-carbonyl] tetrahydro-3′H-spiro [piperidine-4,2′-pyrrolo[2,1-b][1,3]oxazol]-3′-one], for which the concentration for a half-maximal effect (EC50) came out at 550 nM.
With `O=C1N2[C@@H](CC[C@H]2c2cncc(F)c2)OC12CCN(c1ccnc3c(F)cnn13)CC2` [Example 4.49, (5′S,7a′R)-1-(3-fluoropyrazolo[1,5-a]pyrimidin-7-yl)-5′-(5-fluoropyridin-3-yl)tetrahydro-3′H-spiro[piperidine-4,2′-pyrrolo[2,1-b] [1,3]oxazol]-3′-one], the EC50 is below 25 nM.
Under `CSc1cc(N2CCC3(CC2)O[C@@H]2CC[C@@H](c4cc(F)cc(F)c4)N2C3=O)ncc1C#N` [Example 4.71, 6-[(5′S,7a′R)-5′-(3,5-difluorophenyl)-3′-oxotetrahydro-1H,3′H-spiro[piperidine-4,2′-pyrrolo[2,1-b] [1,3]oxazol]-1-yl]-4-(methylsulfanyl)pyridine-3-carbonitrile] stands 30.3 nM; under `O=C1N2[C@@H](CC[C@H]2c2ccccc2)OC12CCN(c1ncnc3c(I)cnn13)CC2` [Example 4.219, (5′S,7a′R)-1-(8-iodopyrazolo[1,5-a] [1,3,5]triazin-4-yl)-5′-phenyltetrahydro-3′H-spiro[piperidine-4,2′-pyrrolo[2,1-b] [1,3]oxazol]-3′-one], below 25 nM.
As for `O=C1N2[C@@H](CC[C@H]2c2ccccc2)OC12CCN(c1ccc(Cl)c3ncnn13)CC2` [Example 15.3, (5′S,7a′R)-1-(8-chloro-[1,2,4]triazolo[1,5-a]pyridin-5-yl)-5′-phenyltetrahydro-3′H-spiro[piperidine-4,2′-pyrrolo[2,1-b]oxazol]-3′-one, TFA salt], the EC50 was below 25 nM.
For `O=C(c1cc(F)cc(F)c1)N1CCC2(CC1)O[C@@H]1CC[C@@H](c3cc(F)cc(F)c3)N1C2=O` [Example 6.48, (5′S,7a′R)-1-(3,5-difluorobenzene-1-carbonyl)-5′-(3,5-difluorophenyl)tetra-hydro-3′H-spiro [piperidine-4,2′-pyrrolo[2,1-b][1,3]oxazol]-3′-one], the concentration for a half-maximal effect (EC50) worked out at 34.2 nM.
For `O=C(c1cccc(C2CC2)c1)N1CCC2(CC1)O[C@@H]1CC[C@@H](c3cc(F)cc(F)c3)N1C2=O` [Example 5.62, (5′S,7a′R)-1-(3-cyclo-propylbenzoyl)-5′-(3,5-difluorophenyl)tetrahydro-3′H-spiro[piperidine-4,2′-pyrrolo[2,1-b]oxazol]-3′-one], the EC50 was below 25 nM.
Turning to `O=C1N2[C@@H](CC[C@H]2c2ccccc2F)OC12CN(c1ccnc3ccnn13)C2` [Example 4.108, (5′S,7a′R)-5′-(2-fluorophenyl)-1-(pyrazolo[1,5-a]pyrimidin-7-yl)tetrahydro-3′H-spiro[azetidine-3,2′-pyrrolo[2,1-b]oxazol]-3′-one], the EC50 is 26.9 nM.
For the compound `O=C1N2[C@@H](CC[C@H]2c2ccccc2)OC12CCN(c1ncc(-c3ncco3)c(C(F)F)n1)CC2` [Example 21.3, (5′S,7a′R)-1-[4-(difluoromethyl)-5-(1,3-oxazol-2-yl)pyrimidin-2-yl]-5′-phenyltetrahydro-3′H-spiro[piperidine-4,2′-pyrrolo[2,1-b][1,3]oxazol]-3′-one], the EC50 was below 25 nM.
For `O=C1N2[C@@H](CC[C@H]2c2ccccc2)OC12CCN(c1nc(-c3ccccn3)cs1)CC2` [Example 11.4, (5′S,7a′R)-5′-phenyl-1-[4-(pyridin-2-yl)-1,3-thiazol-2-yl]tetrahydro-3′H-spiro[piperidine-4,2′-pyrrolo[2,1-b][1,3]oxazol]-3′-one] the value was 61.1 nM; for `CC(C)(O)C#Cc1ccc(C(=O)N2CCC3(CC2)O[C@@H]2CC[C@@H](c4cc(F)cc(F)c4)N2C3=O)cc1` [Example 5.26, (5′S,7a′R)-5′-(3,5-difluoro-phenyl)-1-(4-(3-hydroxy-3-methylbut-1-yn-1-yl)-benzoyl)tetrahydro-3′H-spiro[piperidine-4,2′-pyrrolo[2,1-b]oxazol]-3′-one], 737 nM.
In the case of `N#CC1(NC(=O)c2nc(N3CCC4(CC3)O[C@@H]3CC[C@@H](c5cc(F)cc(F)c5)N3C4=O)ncc2F)CC1` [Example 7.12, N-(1-cyanocyclopropyl)-2-[(5′S,7a′R)-5′-(3,5-difluorophenyl)-3'-oxotetrahydro-1H,3′H-spiro[piperidine-4,2′-pyrrolo[2,1-b][1,3]oxazol]-1-yl]-5-fluoropyrimidine-4-carboxamide], the EC50 worked out at 165 nM.
On to `N#Cc1ccccc1C(=O)N1CCC2(CC1)O[C@@H]1CC[C@@H](c3ccccc3)N1C2=O` [Example 6.147, 2-[(5′S,7a′R)-3′-oxo-5′-phenyltetrahydro-1H,3′H-spiro[piperi-dine-4,2′-pyrrolo[2,1-b][1,3]oxazole]-1-carbonyl]benzonitrile], for which the EC50 is 328 nM.
For `O=C(c1ccc(C(F)F)nc1)N1CCC2(CC1)O[C@@H]1CC[C@@H](c3cc(F)cc(F)c3)N1C2=O` [Example 6.66, (5′S,7a′R)-1-[6-(difluoromethyl)pyr-idine-3-carbonyl]-5′-(3,5-difluorophenyl)-tetrahydro-3′H-spiro [piperidine-4,2′-pyrrolo[2,1-b][1,3]-oxazol]-3′-one], the EC50 came to 311 nM.
For `N#Cc1ccccc1CN1CCC2(CC1)O[C@@H]1CC[C@@H](c3cc(F)cc(F)c3)N1C2=O` [Example 22.3, 2-{[(5′S,7a′R)-5′-(3,5-difluorophenyl)-3′-oxotetrahydro-1H,3′H-spiro[piperidine-4,2′-pyrrolo[2,1-b][1,3]oxazol]-1-yl]methyl}benzonitrile] the value was 807 nM; for `O=C1N2[C@@H](CO[C@H]2c2cc(F)cc(F)c2)CC12CCN(c1ccnc3c(F)cnn13)CC2` (stereo in doubt) [Example 4.148, 3′-(3,5-difluorophenyl)-1-(3-fluoropyrazolo[1,5-a]pyrimidin-7-yl)dihydro-1′H,3′H,5′H-spiro[piperidine-4,6′-pyrrolo[1,2-c] [1,3]oxazol]-5′-one], below 25 nM.
